Measured values from US8093290B2, “Coolant solutions and compositions comprising the same” (Givaudan SA, priority 2002, dated 2012).

Test system: oral cavity
Assay: observed area of the oral cavity affected by the coolant effect
Conditions: in vivo

## CC1CCC(C(C)C)C(OC(=O)C(C)O)C1 (stereo not shown) [Menthyl lactate, menthyl lactate]
  area of the oral cavity targeted by the coolant effect: front/middle of the mouth
